Tests used:
[1] = biological target: T1, full length Keap1 protein / full length NRF2 protein (Homo sapiens, UniProt Q14145); experiment: NRF2-Keap1 TR-FRET Low Protein Assay; type: binding; details: 1.25 nM Keap1 FlagHis and 2.5 nM biotin-NRF2 added
T1 construct: full length NRF2 protein and full length Keap1 protein (Keap1 exists a dimer) are used; His
In short: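 Flag-tagged full-length Keap1 was preincubated with compound (3-fold series) for 2.25 h at 37 °C in Tris pH 8.0/MgCl2/NaCl/BSA/DTT/CHAPS. Biotin-Avi-NRF2 (added at 2.5 nM) was then bound for 1.25 h at 4 °C. Eu-streptavidin/anti-Flag-APC TR-FRET (665/615 nm) was read after 1 h at RT, and pIC50 came from a four-parameter fit.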

[2] = biological target: T2, Keap1 Kelch domain (321-609) / TAMRA-labeled 16mer NRF2 peptide (ETGE motif) (Homo sapiens, UniProt Q14145); experiment: NRF2-Keap1 FP Assay (Keap1 Kelch fluorescence polarization); type: binding; details: 20 nM Keap1 (321-609), 8 nM Tamra labeled peptide
T2 construct: the Kelch domain (321-609) of Keap1 is used
In short: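 Compound dilutions (3-fold) were incubated 1 hr at room temperature with 20 nM Keap1 Kelch (321-609) and 8 nM TAMRA-labeled ETGE 16mer peptide. Buffer was 50 mM Tris pH 8.0, 100 mM NaCl, 5 mM MgCl2, 1 mM DTT, 2 mM CHAPS, 0.005% BSA. Fluorescence polarization (mP) was normalized to controls and fitted with a four-parameter equation to give pIC50.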

[3] = system: NQO1 specific enzyme activity in BEAS-2B cells (marker for NRF2 activation); experiment: BEAS-2B NQO1 MTT Assay; type: cell-based; details: Homo sapiens, compound incubated 48 hours, read-out: EC50 (NQO1 specific enzyme activity induction)
In short: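 BEAS-2B cells treated with compound for 48 h at 37 °C, then lysed; NQO1 activity in lysates measured kinetically by MTT reduction at A570 over 30 min. pEC50 from 3-parameter fit of ΔOD/min versus log concentration; lysate also taken for Cell Titer Glo.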

T2 sequence (Q14145 321-609): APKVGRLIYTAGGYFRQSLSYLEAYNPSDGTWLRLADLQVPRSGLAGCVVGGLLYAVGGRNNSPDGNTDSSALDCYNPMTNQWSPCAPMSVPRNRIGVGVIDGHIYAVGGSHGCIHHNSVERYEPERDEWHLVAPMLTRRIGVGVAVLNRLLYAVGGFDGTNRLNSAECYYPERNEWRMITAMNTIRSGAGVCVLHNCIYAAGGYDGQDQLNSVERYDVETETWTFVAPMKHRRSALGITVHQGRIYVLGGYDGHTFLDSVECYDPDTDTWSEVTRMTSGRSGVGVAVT
T1 sequence (Q14145 whole entry): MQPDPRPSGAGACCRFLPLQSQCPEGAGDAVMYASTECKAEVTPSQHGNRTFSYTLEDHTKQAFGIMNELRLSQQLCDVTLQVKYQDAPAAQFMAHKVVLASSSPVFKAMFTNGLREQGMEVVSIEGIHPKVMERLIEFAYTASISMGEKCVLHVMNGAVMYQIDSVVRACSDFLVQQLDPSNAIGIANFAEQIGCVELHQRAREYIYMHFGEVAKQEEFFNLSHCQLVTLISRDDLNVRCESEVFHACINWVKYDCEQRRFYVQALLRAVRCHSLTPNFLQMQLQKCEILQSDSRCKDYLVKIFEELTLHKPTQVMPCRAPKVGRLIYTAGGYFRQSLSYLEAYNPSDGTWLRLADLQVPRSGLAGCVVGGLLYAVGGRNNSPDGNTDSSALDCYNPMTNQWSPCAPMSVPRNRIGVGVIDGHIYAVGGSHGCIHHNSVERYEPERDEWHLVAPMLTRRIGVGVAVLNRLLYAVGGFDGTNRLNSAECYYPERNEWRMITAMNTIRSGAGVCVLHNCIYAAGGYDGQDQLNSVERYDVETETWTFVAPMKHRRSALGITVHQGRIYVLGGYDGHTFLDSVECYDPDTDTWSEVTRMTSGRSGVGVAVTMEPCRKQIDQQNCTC

Row | SMILES | IC50 [1] [nM] | IC50 [2] [nM] | EC50 [3] [nM]
1 | C[C@H](Oc1cccc(-c2cccc(-n3ncc(C(=O)O)c3[C@@H]3C[C@H]3c3c[nH]nn3)c2)c1)C1CCCCC1 [Example 99, 5-((1R,2R)-2-(1H-1,2,3-Triazol-4-yl)cyclopropyl)-1-(3′-((S)-1-cyclohexylethoxy)-[1,1′-biphenyl]-3-yl)-1H-pyrazole-4-carboxylic Acid] | < 10 | 10 to 100 | 1 to 10
2 | C[C@H](Oc1cccc(-c2cccc(-n3ncc(C(=O)O)c3[C@@H]3C[C@H]3c3cn(C)nn3)c2)c1F)C1CCCCC1 [Example 104, 1-(3′-((S)-1-cyclohexylethoxy)-2′-fluoro-[1,1′-biphenyl]-3-yl)-5-((1R,2R)-2-(1-methyl-1H-1,2,3-triazol-4-yl)cyclopropyl)-1H-pyrazole-4-carboxylic Acid] | 10 to 100 | 10 to 100 | 10 to 100
3 | C[C@H](Oc1cccc(-c2cccc(-n3ncc(C(=O)OCCO)c3[C@@H]3C[C@H]3c3cn(C)nn3)c2)c1)C1CCCCC1 [Example 107, 2-Hydroxyethyl 1-(3′-((S)-1-cyclohexylethoxy)-[1,1′-biphenyl]-3-yl)-5-((1R,2R)-2-(1-methyl-1H-1,2,3-triazol-4-yl)cyclopropyl)-1H-pyrazole-4-carboxylate] | 1000 to 10000 | > 10000 | 100 to 1000
4 | C[C@H](Oc1cccc(-c2cccc(-n3ncc(C(=O)OCCN4CCOCC4)c3[C@@H]3C[C@H]3c3cn(C)nn3)c2)c1)C1CCCCC1 [Example 108, 2-Morpholinoethyl 1-(3′-((S)-1-cyclohexylethoxy)-[1,1′-biphenyl]-3-yl)-5-((1R,2R)-2-(1-methyl-1H-1,2,3-triazol-4-yl)cyclopropyl)-1H-pyrazole-4-carboxylate] | 1000 to 10000 | > 10000 | 10 to 100
5 | C[C@H](Oc1cccc(-c2cccc(-n3ncc(C(=O)OCOC(=O)C(C)(C)C)c3[C@@H]3C[C@H]3c3cn(C)nn3)c2)c1)C1CCCCC1 [Example 109, (Pivaloyloxy)methyl 1-(3′-((S)-1-cyclohexylethoxy)-[1,1′-biphenyl]-3-yl)-5-((1R,2R)-2-(1-methyl-1H-1,2,3-triazol-4-yl)cyclopropyl)-1H-pyrazole-4-carboxylate] | 100 to 1000 | > 10000 | 1 to 10
6 | CC(=O)OCOC(=O)c1cnn(-c2cccc(-c3cccc(O[C@@H](C)C4CCCCC4)c3)c2)c1[C@@H]1C[C@H]1c1cn(C)nn1 [Example 110, Acetoxymethyl 1-(3′-((S)-1-cyclohexylethoxy)-[1,1′-biphenyl]-3-yl)-5-((1R,2R)-2-(1-methyl-1H-1,2,3-triazol-4-yl)cyclopropyl)-1H-pyrazole-4-carboxylate] | 10 to 100 | 100 to 1000 | < 1
7 | C[C@H](Oc1cccc(-c2cccc(-n3ncc(C(=O)OCOC(=O)OC(C)(C)C)c3[C@@H]3C[C@H]3c3cn(C)nn3)c2)c1)C1CCCCC1 [Example 112, ((tert-Butoxycarbonyl)oxy)methyl 1-(3′-((S)-1-cyclohexylethoxy)-[1,1′-biphenyl]-3-yl)-5-((1R,2R)-2-(1-methyl-1H-1,2,3-triazol-4-yl)cyclopropyl)-1H-pyrazole-4-carboxylate] | 100 to 1000 | > 10000 | 1 to 10
8 | Cc1cc([C@@H]2C[C@H]2c2c(C(=O)O)cnn2-c2cccc(-c3cccc(O[C@@H](C)C4CCCCC4)c3)c2)on1 [Example 115, 1-(3′-((S)-1-cyclohexylethoxy)-[1,1′-biphenyl]-3-yl)-5-((1R,2R)-2-(3-methylisoxazol-5-yl)cyclopropyl)-1H-pyrazole-4-carboxylic Acid] | 100 to 1000 | 100 to 1000 | 100 to 1000

Continued, in another order:

Row | IC50 [1] [nM] | IC50 [2] [nM] | SMILES | EC50 [3] [nM]
9 | < 10 | 10 to 100 | C[C@H](Oc1cccc(-c2cccc(-n3ncc(C(=O)O)c3[C@@H]3C[C@H]3c3cn(C4CCOCC4)nn3)c2)c1)C1CCCCC1 [Example 95, 1-(3′-((S)-1-Cyclohexylethoxy)-[1,1′-biphenyl]-3-yl)-5-((1R,2R)-2-(1-(tetrahydro-2H-pyran-4-yl)-1H-1,2,3-triazol-4-yl)cyclopropyl)-1H-pyrazole-4-carboxylic Acid] | 1 to 10
10 | 100 to 1000 | 1000 to 10000 | C[C@H](Oc1cccc(-c2cccc(-n3ncc(C(=O)O)c3[C@H]3C[C@@H]3c3cn(C4CCOCC4)nn3)c2)c1)C1CCCCC1 [Example 96] | 100 to 1000
11 | 10 to 100 | 10 to 100 | C[C@H](Oc1cccc(-c2cccc(-n3ncc(C(=O)O)c3[C@@H]3C[C@H]3c3cn(CC(F)(F)F)nn3)c2)c1)C1CCCCC1 [Example 97, 1-(3′-((S)-1-Cyclohexylethoxy)-[1,1′-biphenyl]-3-yl)-5-((1R,2R)-2-(1-(2,2,2-trifluoroethyl)-1H-1,2,3-triazol-4-yl)cyclopropyl)-1H-pyrazole-4-carboxylic acid] | 1 to 10
12 | < 10 | 10 to 100 | C[C@H](Oc1cccc(-c2cccc(-n3ncc(C(=O)O)c3[C@@H]3C[C@H]3c3cn(C4CC4)nn3)c2)c1)C1CCCCC1 [Example 98, 1-(3′-((S)-1-Cyclohexylethoxy)-[1,1′-biphenyl]-3-yl)-5-((1R,2R)-2-(1-cyclopropyl-1H-1,2,3-triazol-4-yl)cyclopropyl)-1H-pyrazole-4-carboxylic acid] | 1 to 10
13 | 100 to 1000 | 1000 to 10000 | C[C@H](Oc1cccc(-c2cccc(-n3ncc(C(=O)O)c3[C@H]3C[C@@H]3c3c[nH]nn3)c2)c1)C1CCCCC1 [Example 100, 5-((1S,2S)-2-(1H-1,2,3-Triazol-4-yl)cyclopropyl)-1-(3′-((S)-1-cyclohexylethoxy)-[1,1′-biphenyl]-3-yl)-1H-pyrazole-4-carboxylic Acid] | 100 to 1000
14 | 1000 to 10000 | > 10000 | CCOC(=O)c1cnn(-c2cccc(-c3cccc(O[C@@H](C)C4CCCCC4)c3)c2)c1[C@@H]1C[C@H]1c1cn(C)nn1 [Example 105, Ethyl 1-(3′-((S)-1-cyclohexylethoxy)-[1,1′-biphenyl]-3-yl)-5-((1R,2R)-2-(1-methyl-1H-1,2,3-triazol-4-yl)cyclopropyl)-1H-pyrazole-4-carboxylate] | < 1
15 | 1000 to 10000 | > 10000 | C[C@H](Oc1cccc(-c2cccc(-n3ncc(C(=O)OC4CCOC4=O)c3[C@@H]3C[C@H]3c3cn(C)nn3)c2)c1)C1CCCCC1 (stereo partly drawn) [Example 106, 2-Oxotetrahydrofuran-3-yl 1-(3′-((S)-1-cyclohexylethoxy)-[1,1′-biphenyl]-3-yl)-5-((1R,2R)-2-(1-methyl-1H-1,2,3-triazol-4-yl)cyclopropyl)-1H-pyrazole-4-carboxylate] | 100 to 1000
16 | 100 to 1000 | > 10000 | C[C@H](Oc1cccc(-c2cccc(-n3ncc(C(=O)OCOC(=O)c4ccccc4)c3[C@@H]3C[C@H]3c3cn(C)nn3)c2)c1)C1CCCCC1 [Example 111, (Benzoyloxy)methyl 1-(3′-((S)-1-cyclohexylethoxy)-[1,1′-biphenyl]-3-yl)-5-((1R,2R)-2-(1-methyl-1H-1,2,3-triazol-4-yl)cyclopropyl)-1H-pyrazole-4-carboxylate] | 1 to 10
17 | < 10 | 10 to 100 | CC[C@H]1COc2ccccc2CN1Cc1cccc(-c2cccc(-n3ncc(C(=O)O)c3[C@@H]3C[C@H]3c3cn(C)nn3)c2)c1 [Example 119, 1-(3′-(((S)-3-Ethyl-2,3-dihydrobenzo[f][1,4]oxazepin-4(5H)-yl)methyl)-[1,1′-biphenyl]-3-yl)-5-((1R,2R)-2-(1-methyl-1H-1,2,3-triazol-4-yl)cyclopropyl)-1H-pyrazole-4-carboxylic Acid] | 100 to 1000
18 | < 10 | 10 to 100 | CC[C@@H]1COc2ccccc2CN1Cc1cccc(-c2cccc(-n3ncc(C(=O)O)c3[C@@H]3C[C@H]3c3cn(C)nn3)c2)c1 [Example 120, 1-(3′-(((R)-3-Ethyl-2,3-dihydrobenzo[f][1,4]oxazepin-4(5H)-yl)methyl)-[1,1′-biphenyl]-3-yl)-5-((1R,2R)-2-(1-methyl-1H-1,2,3-triazol-4-yl)cyclopropyl)-1H-pyrazole-4-carboxylic Acid] | 10 to 100
19 | 10 to 100 | 10 to 100 | C[C@@H]1Cc2ccccc2S(=O)(=O)N(Cc2cccc(-c3cccc(-n4ncc(C(=O)O)c4[C@@H]4C[C@H]4c4cn(C)nn4)c3)c2)C1 [Example 130, 1-(3′-(((R)-4-Methyl-1,1-dioxido-4,5-dihydrobenzo[f][1,2]thiazepin-2(3H)-yl)methyl)-[1,1′-biphenyl]-3-yl)-5-((1R,2R)-2-(1-methyl-1H-1,2,3-triazol-4-yl)cyclopropyl)-1H-pyrazole-4-carboxylic Acid] | 100 to 1000
